Assay results published in patent US11406644B2, “Tropomyosin-related kinase (TRK) inhibitors” (Genzyme Corporation, priority 2013, dated 2022).
Where a name gives a salt, the structure may show the parent alone.

How the values were obtained:
[1] = test system: Male Lewis rats with PGPS knee arthritis; experiment: Reactivated peptidoglycan-polysaccharide (PGPS) knee arthritis; format: in vivo, rat
Source text: Male Lewis rats were acclimated to the testing facility for 7 days. The rats were housed in 5 per cage in shoe-box polycarbonate cages with wire tops, wood chip bedding and suspended food and water bottles.
On day −21, the male Lewis rats were randomized into treatment groups by body weight. The rats were anesthetized and injected with peptidoglycan-polysaccharide (PGPS) into the right knee to induce PGPS arthritis. Arthritis was reactivated on days 0 and 14 by an IV tail injection of PGPS.
The rats were weighed at baseline on days 0, 4, 14 and 18. Knee thickness was measured by caliper at baseline and on days 0, 2, 4, 14, 16 and 18. Gait analysis occurred on days 0-4 and 14-18, with video recording of selected animals on days 3 and 17. Gait analysis was performed by applying ink to the ventral surface of the foot and documenting weight bearing during movement across paper.
The animals were terminated at day 18. Right knees were removed, trimmed of extraneous tissue, and collected into 10% neutral buffered formalin. After two days in the formalin buffer and three days in 10% formic acid decalcifier, the knees were cut into two approximately equal halves in the frontal plane and processed for paraffin embedding and stained with T. Blue. Histological examinations were subsequently performed for bone resorption, inflammation, pannus and cartilage damage.
Body weights, gait deficiency and caliper measurements were analyzed using a one-way analysis of variance (1-way ANOVA) with Dunnett's multiple comparison post-test. Gait scores were analyzed using a Kruskal-Wallis test (non-parametric ANOVA) with Dunn's multiple comparison post-test. Histopathology scores were analyzed using a Kruskal-Wallis test (non-parametric ANOVA) with Dunn's multiple comparison post-test.

[2] = test system: Male Wistar rats with MIA induced osteoarthritis; experiment: Monosodium iodoacetate (MIA) induced osteoarthritis; format: in vivo, rat; conditions: for MIA/LRS placebo group compared with treated group at day 35: p<0.05
Source text: Male Wistar rats were acclimated to the testing facility for 5 days. The rats were individually housed in micro-isolator shoe-box polycarbonate cages with cob bedding and water bottles. Dry pelleted food of known composition and nutritional components was provided ad libitum
Animals were randomized by treatment type using an online random number generator. Each treatment group was assigned a number, entered into the random number generator, recorded then translated back to the associated treatment. All injections were given in the left leg unless the treatment indicated “Contralateral” in which case the injection was given in the right leg. Both legs were shaved on all animals at the time of the treatment injections to blind the test administrator.
The rats were weighed the day prior to injection with monosodium iodoacetate (MIA), the agent used to induce osteoarthritis in the animals. The day of injection, rats from groups 2-8 received a subcutaneous (SC) dose of buprenorphine at least one hour prior to induction. […] Naïve animals were then placed in recovery. All other animals received an injection of MIA. In animals receiving MIA, the hind leg was flexed and an injection of MIA (25 μL) was injected into the intra-articular space using a 27 gauge ½ Inch Needle. Standard postoperative care was performed (twice daily for 48 hours).
On Day 8 the test article was administered as described above. On Days −1, 7, 14, 21, 28, and 35 post-induction, weight bearing was assessed. A weight bearing scale was utilized using a plexiglass chamber to assess the amount of weight distributed in each hind limb. The animals were acclimated to the chamber for at least 5 minutes prior to testing and the weight distribution was recorded 5 times.
The animals were terminated at day 36. Both stifles were collected from each animal; the skin was removed from the joint and the patella was removed while leaving as much of the fat pad intact with the joint. The stifle was placed in the appropriate cassette with rolled gauze to secure the stifle in the cassette and then placed into 4% Paraformaldehyde. These samples were examined histologically.

TrkA = TrkA (Homo sapiens (Human), UniProt P04629); experiment: TrkA activity, off-chip mobility shift assay (LabChip 3000); format: biochemical; conditions: 200 pM TrkA, 55 μM ATP (ATP Km)
Sequence of TrkA (P04629 442-796): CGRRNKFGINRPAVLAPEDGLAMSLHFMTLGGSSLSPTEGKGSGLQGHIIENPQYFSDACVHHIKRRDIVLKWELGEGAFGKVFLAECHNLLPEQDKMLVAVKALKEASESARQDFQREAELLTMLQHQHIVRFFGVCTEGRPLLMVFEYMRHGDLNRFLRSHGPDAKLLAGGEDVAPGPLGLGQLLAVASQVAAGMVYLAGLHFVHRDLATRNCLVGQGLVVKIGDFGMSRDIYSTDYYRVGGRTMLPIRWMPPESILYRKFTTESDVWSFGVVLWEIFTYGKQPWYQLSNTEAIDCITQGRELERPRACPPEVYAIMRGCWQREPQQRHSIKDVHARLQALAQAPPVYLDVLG
Source text: (§1) Reagents and consumables were purchased from Sigma Aldrich, Carna Biosciences, or Caliper Life Sciences. All assay reaction conditions for IC50 determinations were within the linear range with respect to time and enzyme concentration. […] The LabChip 3000 separates and measures the fluorescent signal of fluorescein labeled peptide substrate and fluorescein labeled peptide product present in each well. Results are expressed as percent conversion by measuring peak height for both the substrate and product and dividing the product peak height by the sum of peak heights for both substrate and product.

TrkB = TrkB (Homo sapiens (Human), UniProt Q16620); experiment: TrkB activity, off-chip mobility shift assay (LabChip 3000); format: biochemical; conditions: 300 pM TrkB, 70 μM ATP (ATP Km)
Sequence of TrkB (Q16620 456-822): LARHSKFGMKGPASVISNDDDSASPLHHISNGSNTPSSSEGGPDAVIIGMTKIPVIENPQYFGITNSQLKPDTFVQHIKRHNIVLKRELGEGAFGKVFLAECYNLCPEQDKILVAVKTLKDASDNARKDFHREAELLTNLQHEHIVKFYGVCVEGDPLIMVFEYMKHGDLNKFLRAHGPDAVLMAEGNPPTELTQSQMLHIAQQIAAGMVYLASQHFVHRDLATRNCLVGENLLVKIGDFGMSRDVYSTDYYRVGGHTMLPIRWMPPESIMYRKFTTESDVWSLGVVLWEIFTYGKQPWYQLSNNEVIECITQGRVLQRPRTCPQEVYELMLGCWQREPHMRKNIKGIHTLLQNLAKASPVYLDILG
Source text: as §1

[3] = 0.06 mg intra-articular on day −7

For `COc1ccc(COc2ccc(Cn3c(N)nc4cc(-c5cnn(C)c5)cnc43)cc2OC)cc1` [Ex. 3-15, 3-(3-Methoxy-4-((4-methoxybenzyl)oxy)benzyl)-6-(1-methyl-1H-pyrazol-4-yl)-3H-imidazo[4,5-b]pyridin-2-amine], the “knee caliper AUC values” ([1]; 1 mg intra-articular on day −7) was “generally unaffected”, the “reduction of gait AUC values (scores and deficiency), first reactivation” value ([1]; 1 mg intra-articular on day −7) was 92-93% and the “reduction of gait AUC values (scores and deficiency), second reactivation” value ([1]; 1 mg intra-articular on day −7) was 85-86%. For the same compound, the knee caliper measurements ([1]; 1 mg intra-articular on day −7, day 14 (just prior to second reactivation)) was “significantly reduced”, the “reductions in gait deficiency, second reactivation” value ([1]; 1 mg intra-articular on day −7, days 15, 17 and 18) was “significant” and the “gait scores and deficiency, first reactivation” value ([1]; 1 mg intra-articular on day −7, throughout first reactivation) was “significant reductions”. The “gait scores, second reactivation” value ([1]; 1 mg intra-articular on day −7, throughout second reactivation) was “significantly reduced”, the “efficacy (weight bearing)” value ([2]; 10 μg Contralateral injection) was “efficacy at 3 and 4 weeks” and the “efficacy (weight bearing)” value ([2]; 10 μg Ipsilateral injection) was “efficacy was observed at 2 through 4 weeks”. For the same compound, the “efficacy (weight bearing)” value ([2]; 30 μg Contralateral injection) was “efficacy at only the 3 week timepoint”, the “efficacy (weight bearing)” value ([2]; 30 μg Ipsilateral injection) was “effective throughout the four weeks following administration” and the “MIA/LRS placebo group compared with treated group at day 35” value ([2]; 30 μg Ipsilateral) was “significantly worse”. The “systemic pain relief (weight bearing)” value ([2]; 100 μg Contralateral injection, 1-4 weeks) was “did not show systemic pain relief at any timepoint”, the “efficacy (weight bearing)” value ([2]; 100 μg Ipsilateral injection) was “effective throughout the four weeks following administration” and the “MIA/LRS placebo group compared with treated group at day 35” value ([2]; 100 μg Ipsilateral) was “significantly worse”. The “body weight results, adverse observations due to treatment” value ([2]; intra-articular 10-100 μg on day 8) was “No adverse observations” and the “histopathology of knee joint, adverse changes” value ([2]; stifles collected at day 36) was “no adverse changes”.
Compound `COc1ccc(COc2ccc(Cn3cnc4cc(-c5cnn(C6CCNCC6)c5)ccc43)cc2OC)cn1` [Ex. 3-5] has an IC50 (TrkA) of 6 nM and an IC50 (TrkB) of 5 nM.
`C[C@]12C=CC(=O)C=C1CC[C@H]1[C@@H]3C[C@@H](O)[C@](O)(C(=O)CO)[C@@]3(C)C[C@H](O)[C@@]12F` [Triamcinolone, reference compound] was tested, and the “reduction of gait AUC values, each reactivation calculated separately” value [1, 3] was 74-99%, the “reduction of gait AUC values, summed” value [1, 3] was 88-92% and the “reductions in knee caliper AUC” value [1, 3] was 53-106%.
`COc1ccc(-c2cnc3c(c2)ncn3Cc2ccc(OC(C)c3ccc(OC)nc3)c(OC)c2)cn1` (centres unmarked) [Ex. 3-58-2, 3-(3-methoxy-4-(1-(6-methoxypyridin-3-yl)ethoxy)benzyl)-6-(6-methoxypyridin-3-yl)-3H-imidazo[4,5-b]pyridine formate] showed an IC50 (TrkB) of 610 nM.
